For 19 compounds, IC50 results are on record in patent US12281122B1, “PI3K inhibitors” (Cogent Biosciences, Inc., priority 2023, dated 2025).

Some results are limits rather than exact numbers.

Assay [1] concerns SKBR3 (PI3Kα-Wild Type) cell line. The experiment in a line: HTRF phospho-AKT(S473) cell assay in SKBR3 cells. The class given is cell-based, human. Particulars: Homo sapiens, SK-BR-3; HTRF phospho-AKT(S473), SKBR3 (PI3Kα-Wild Type) cells, 2 hours compound incubation, PDGF-BB stimulated. A digest of the protocol: (§1)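 T47D (PI3Kα-H1047R; RPMI, 10% FBS, insulin) and SKBR3 (wild-type PI3Kα; McCoy's 5A, 10% FBS) cells treated 2 h at 37 °C with 12-point 1:3 dilutions, top 5 μM and 10 μM respectively, ≤0.5% DMSO. SKBR3 stimulated with 70 ng/ml PDGF-BB for the last 15 min; lysate pAKT(S473) by HTRF, IC50 from curves.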
Background: TR-FRET usually uses a lanthanide donor and a delayed reading to cut background.

For assay [2], the system named is T47D (PI3Kα-H1047R) cell line. Put plainly: HTRF phospho-AKT(S473) cell assay in T47D cells. The class given is cell-based, human. The note with it: Homo sapiens; HTRF phospho-AKT(S473), T47D (PI3Kα-H1047R) cells, 2 hours compound incubation. A digest of the protocol: as §1

Consider `COc1cc(N2CCN(c3nc4c([C@@H](C)Nc5ccc(Cl)nc5C(=O)NS(C)(=O)=O)cc(C)cc4c(=O)n3C)CC2)ccn1` [Compound 554, (R)-6-chloro-3-((1-(2-(4-(2-methoxypyridin-4-yl)piperazin-1-yl)-3,6-dimethyl-4-oxo-3,4-dihydroquinazolin-8-yl)ethyl)amino)-N-(methylsulfonyl) picolinamide], for which the half-maximal inhibitory concentration (IC50) (usually the point on the concentration scale where inhibition reaches its midpoint) in assay [1] was 1 to 5 µM; in assay [2] it was < 250 nM.
With `COc1ncc(N2CCN(c3nc4c([C@@H](C)Nc5ccc(Cl)nc5C(=O)NS(C)(=O)=O)cc(C)cc4c(=O)n3C)CC2)cn1` [Compound 555, (R)-6-chloro-3-((1-(2-(4-(2-methoxypyrimidin-5-yl)piperazin-1-yl)-3,6-dimethyl-4-oxo-3,4-dihydroquinazolin-8-yl)ethyl)amino)-N-(methylsulfonyl) picolinamide], the half-maximal inhibitory concentration (IC50) in assay [1] was 1 to 5 µM; in assay [2], < 250 nM.
The like results for `Cc1cc([C@@H](C)Nc2ccc(Cl)nc2C(=O)NS(C)(=O)=O)c2nc(N3CCC(c4cc5n(n4)CCO5)CC3)n(C)c(=O)c2c1` [Compound 556, (R)-6-chloro-3-((1-(2-(4-(2,3-dihydropyrazolo[5,1-b]oxazol-6-yl)piperidin-1-yl)-3,6-dimethyl-4-oxo-3,4-dihydroquinazolin-8-yl)ethyl)amino)-N-(methylsulfonyl) picolinamide] were, in that order, 1 to 5 µM and < 250 nM.
As to `Cc1cc([C@@H](C)Nc2ccc(Cl)nc2C(=O)NS(C)(=O)=O)c2nc(N3CCC(c4nnc(C)o4)CC3)n(C)c(=O)c2c1` [Compound 557, (R)-6-chloro-3-((1-(3,6-dimethyl-2-(4-(5-methyl-1,3,4-oxadiazol-2-yl)piperidin-1-yl)-4-oxo-3,4-dihydroquinazolin-8-yl)ethyl)amino)-N-(methylsulfonyl) picolinamide], the IC50 in assay [1] fell in the range of 1 to 5 µM; in assay [2] it was 250 to 500 nM.
The corresponding values for `Cc1cc([C@@H](C)Nc2ccc(Cl)nc2C(=O)NS(C)(=O)=O)c2nc(N3CCC(c4nnc(C)s4)CC3)n(C)c(=O)c2c1` [Compound 558, (R)-6-chloro-3-((1-(3,6-dimethyl-2-(4-(5-methyl-1,3,4-thiadiazol-2-yl)piperidin-1-yl)-4-oxo-3,4-dihydroquinazolin-8-yl)ethyl)amino)-N-(methylsulfonyl) picolinamide] are 1 to 5 µM and < 250 nM.
For `Cc1cc([C@@H](C)Nc2ccc(Cl)nc2C(=O)NS(C)(=O)=O)c2nc(N3C[C@@H]4[C@H](C3)[C@H]4c3cnn(C4CC4)n3)n(C)c(=O)c2c1` [Compound 559, 6-chloro-3-(((R)-1-(2-((1R,5S,6R)-6-(2-cyclopropyl-2H-1,2,3-triazol-4-yl)-3-azabicyclo[3.1.0]hexan-3-yl)-3,6-dimethyl-4-oxo-3,4-dihydroquinazolin-8-yl)ethyl)amino)-N-(methylsulfonyl) picolinamide], the half-maximal inhibitory concentration (IC50) was ≥ 5 µM in assay [1] and 250 to 500 nM in assay [2].
In the case of `C[C@@H](Nc1ccc(Cl)nc1C(=O)NS(C)(=O)=O)c1cc(F)cc2c(=O)n(C)c(N3CC[C@@H](Oc4cnn(C)c4)C3)nc12` [Compound 560, 6-chloro-3-(((R)-1-(6-fluoro-3-methyl-2-((R)-3-((1-methyl-1H-pyrazol-4-yl)oxy)pyrrolidin-1-yl)-4-oxo-3,4-dihydroquinazolin-8-yl)ethyl)amino)-N-(methylsulfonyl) picolinamide], the IC50 in assay [1] was 1 to 5 µM; in assay [2], < 250 nM.
In the case of `Cc1cc([C@@H](C)Nc2ccc(Cl)nc2C(=O)NS(C)(=O)=O)c2nc(N3CCC(C4=NN(C)C(=O)C4(F)F)CC3)n(C)c(=O)c2c1` [Compound 561, (R)-6-chloro-3-((1-(2-(4-(4,4-difluoro-1-methyl-5-oxo-4,5-dihydro-1H-pyrazol-3-yl)piperidin-1-yl)-3,6-dimethyl-4-oxo-3,4-dihydroquinazolin-8-yl)ethyl)amino)-N-(methylsulfonyl) picolinamide], the IC50 was ≥ 5 µM in assay [1] and 250 to 500 nM in assay [2].
The corresponding values for `COc1nc(C2CCN(c3nc4c([C@@H](C)Nc5ccc(Cl)nc5C(=O)NS(C)(=O)=O)cc(C)cc4c(=O)n3C)CC2)ncc1C` [Compound 562, (R)-6-chloro-3-((1-(2-(4-(4-methoxy-5-methylpyrimidin-2-yl)piperidin-1-yl)-3,6-dimethyl-4-oxo-3,4-dihydroquinazolin-8-yl)ethyl)amino)-N-(methylsulfonyl) picolinamide] are ≥ 5 µM and 250 to 500 nM.
The corresponding values for `COc1nccnc1C1CCN(c2nc3c([C@@H](C)Nc4ccc(Cl)nc4C(=O)NS(C)(=O)=O)cc(C)cc3c(=O)n2C)CC1` [Compound 563, (R)-6-chloro-3-((1-(2-(4-(3-methoxypyrazin-2-yl)piperidin-1-yl)-3,6-dimethyl-4-oxo-3,4-dihydroquinazolin-8-yl)ethyl)amino)-N-(methylsulfonyl) picolinamide] are ≥ 5 µM and 250 to 500 nM.
`Cc1cnc(N2C[C@@H]3C[C@H]2CN3c2nc3c([C@@H](C)Nc4ccc(Cl)nc4C(=O)NS(C)(=O)=O)cc(C)cc3c(=O)n2C)nc1` [Compound 564, 6-chloro-3-(((R)-1-(3,6-dimethyl-2-((1S,4S)-5-(5-methylpyrimidin-2-yl)-2,5-diazabicyclo[2.2.1]heptan-2-yl)-4-oxo-3,4-dihydroquinazolin-8-yl)ethyl)amino)-N-(methylsulfonyl) picolinamide]: the values for the IC50 in assay [1] and in assay [2] were ≥ 5 µM and 250 to 500 nM, respectively.
Consider `Cc1cnc(N2C[C@H]3C[C@@H]2CN3c2nc3c([C@@H](C)Nc4ccc(Cl)nc4C(=O)NS(C)(=O)=O)cc(C)cc3c(=O)n2C)nc1` [Compound 565, 6-chloro-3-(((R)-1-(3,6-dimethyl-2-((1R,4R)-5-(5-methylpyrimidin-2-yl)-2,5-diazabicyclo[2.2.1]heptan-2-yl)-4-oxo-3,4-dihydroquinazolin-8-yl)ethyl)amino)-N-(methylsulfonyl) picolinamide], for which the IC50 in assay [1] was ≥ 5 µM; in assay [2] it was 250 to 500 nM.
The corresponding values for `Cc1cc([C@@H](C)Nc2ccc(Cl)nc2C(=O)NS(C)(=O)=O)c2nc(N3C[C@@H]4[C@H](C3)[C@H]4n3cnc(C)n3)n(C)c(=O)c2c1` [Compound 566, 6-chloro-3-(((R)-1-(3,6-dimethyl-2-((1R,5S,6S)-6-(3-methyl-1H-1,2,4-triazol-1-yl)-3-azabicyclo[3.1.0]hexan-3-yl)-4-oxo-3,4-dihydroquinazolin-8-yl)ethyl)amino)-N-(methylsulfonyl) picolinamide] are 1 to 5 µM and 250 to 500 nM.
As to `Cc1cc([C@@H](C)Nc2ccc(Cl)nc2C(=O)NS(C)(=O)=O)c2nc(N3C[C@@H]4[C@H](C3)[C@H]4c3cc(C)n(C4CC4)n3)n(C)c(=O)c2c1` [Compound 567, 6-chloro-3-(((R)-1-(2-((1R,5S,6R)-6-(1-cyclopropyl-5-methyl-1H-pyrazol-3-yl)-3-azabicyclo[3.1.0]hexan-3-yl)-3,6-dimethyl-4-oxo-3,4-dihydroquinazolin-8-yl)ethyl)amino)-N-(methylsulfonyl) picolinamide], the half-maximal inhibitory concentration (IC50) in assay [1] is ≥ 5 µM; in assay [2], 250 to 500 nM.
The like results for `Cc1cc([C@@H](C)Nc2ccc(Cl)nc2C(=O)NS(C)(=O)=O)c2nc(N3C[C@@H]4[C@H](C3)[C@H]4c3cc(C)nn3C3CC3)n(C)c(=O)c2c1` [Compound 568, 6-chloro-3-(((R)-1-(2-((1R,5S,6R)-6-(1-cyclopropyl-3-methyl-1H-pyrazol-5-yl)-3-azabicyclo[3.1.0]hexan-3-yl)-3,6-dimethyl-4-oxo-3,4-dihydroquinazolin-8-yl)ethyl)amino)-N-(methylsulfonyl) picolinamide] were, in that order, 1 to 5 µM and 250 to 500 nM.
The like results for `Cc1cc([C@@H](C)Nc2ccc(Cl)nc2C(=O)NS(C)(=O)=O)c2nc(N3C[C@@H]4[C@H](C3)[C@H]4c3nn(C4CC4)cc3F)n(C)c(=O)c2c1` [Compound 569, 6-chloro-3-(((R)-1-(2-((1R,5S,6R)-6-(1-cyclopropyl-4-fluoro-1H-pyrazol-3-yl)-3-azabicyclo[3.1.0]hexan-3-yl)-3,6-dimethyl-4-oxo-3,4-dihydroquinazolin-8-yl)ethyl)amino)-N-(methylsulfonyl) picolinamide] were, in that order, ≥ 5 µM and 250 to 500 nM.
The like results for `Cc1cc([C@@H](C)Nc2ccc(Cl)nc2C(=O)NS(C)(=O)=O)c2nc(N3C[C@@H]4[C@H](C3)[C@H]4c3c(F)cnn3C3CC3)n(C)c(=O)c2c1` [Compound 570, 6-chloro-3-(((R)-1-(2-((1R,5S,6R)-6-(1-cyclopropyl-4-fluoro-1H-pyrazol-5-yl)-3-azabicyclo[3.1.0]hexan-3-yl)-3,6-dimethyl-4-oxo-3,4-dihydroquinazolin-8-yl)ethyl)amino)-N-(methylsulfonyl) picolinamide] were, in that order, ≥ 5 µM and < 250 nM.
Take `Cc1cc([C@@H](C)Nc2ccc(Cl)nc2C(=O)NS(C)(=O)=O)c2nc(N3CCC(c4cc(C)on4)CC3)n(C)c(=O)c2c1` [Compound 571, (R)-6-chloro-3-((1-(3,6-dimethyl-2-(4-(5-methylisoxazol-3-yl)piperidin-1-yl)-4-oxo-3,4-dihydroquinazolin-8-yl)ethyl)amino)-N-(methylsulfonyl) picolinamide]: the values for the IC50 in assay [1] and in assay [2] were 1 to 5 µM and < 250 nM, respectively.
Regarding `CCn1c(N2C[C@@H]3[C@H](C2)[C@H]3c2cnc(C)cn2)nc2c([C@@H](C)Nc3ccc(Cl)nc3C(=O)NS(C)(=O)=O)cc(C)cc2c1=O` [Compound 572, 6-chloro-3-(((R)-1-(3-ethyl-6-methyl-2-((1R,5S,6R)-6-(5-methylpyrazin-2-yl)-3-azabicyclo[3.1.0]hexan-3-yl)-4-oxo-3,4-dihydroquinazolin-8-yl)ethyl)amino)-N-(methylsulfonyl) picolinamide], the IC50 in assay [1] is 1 to 5 µM; in assay [2], < 250 nM.
